Values belong to the molecule of their own block, whether it stands above or below them. Square brackets hold non-standard residues; d marks the D form. * marks the point of attachment. FITC = O=C1OC2(c3ccc(O)cc3Oc3cc(O)ccc32)c2ccc(NC(=S)*)cc21; Abu(3-Me-diazirin-3-yl) = CC1(CC[C@H](N)C(=O)O)N=N1; Nle = CCCC[C@H](N)C(=O)O; For = O=C*
Assays:
[1] = test system: FPR1 (FPR1-HEK293T cells); experiment: flow cytometry competition of probe-TAMRA with known ligands; type: binding; details: probe-TAMRA 10 nM
Experimental: (§1) Cells were incubated in a humidified atmosphere at 37 °C containing 5% CO2. HEK293T cells were cultured in Dulbecco’s Modified Eagle Medium (DMEM, Fisher) supplemented with 1% L-glutamine, 10% v/v fetal bovine serum (FBS) and 1% v/v Pen-Strep. Cells were detached using 1  trypsin in PBS.
HEK293T cells were seeded in a 6-well plate (2 × 10^5 cells/well) and incubated at 37 °C overnight. The plasmid containing FPR1 gene (0.7 µg/µL stock) and Turbofect (Fisher) were mixed with DMEM (no FBS) and incubated at room temperature for 15 min (1 µg of plasmid and 3 µL of Turbofect in 100 µL of media per well). The solution was added to the plated cells and incubated at 37 °C overnight. For mock transfection, the plasmid was omitted. […]
concentrations of 5 µM, 20 µM, 5 µM respectively) or DMSO for 30 min on ice (final DMSO concentration of 2%). […] Membranes were resuspended in 25 µL PBS, irradiated for 30 s at 365 nm, deglycosylated as described in section 2.6, and then analysed by SDS-PAGE.
Crosslinked cell lysate samples were analysed using gel-based fluorescent imaging. […] Fluorescence was measured using a BioRad ChemiDoc MP Imaging System with a Cy3 filter. […]

[2] = test system: FPR1 (crude membrane fraction of transfected HEK293T cells); experiment: gel-based competition of probe-TAMRA labelling in membrane fraction; type: binding; details: 50 nM probe-TAMRA, 30 min on ice, 2% DMSO, 365 nm 30 s, PNGaseF
Experimental: (a) UV-dependent crosslinking analysed by gel and western blot. […] Following cell lysis, samples were separated by SDS-PAGE and analysed by in-gel fluorescence (550 nm emission) and anti-FLAG western blot. Ponceau staining was used to assess protein loading. […] Probes were used at a concentration of 10 nM. Samples were washed twice before analysis and 10,000 cells were measured per sample. […] HEK293T cells transfected with FPR1 or mock transfected were suspended, lysed by sonication and membrane fraction isolated by centrifugation. […] Proteins were deglycosylated with PNGaseF, separated by SDS-PAGE and analysed by in-gel fluorescence (550nm emission). The gel was Coomassie stained to provide evidence of equal protein loading.
as §1
HEK293T cells were seeded in a 6-well plate (2 × 10^5 cells/well) and incubated at 37 °C overnight. The plasmid containing FPR1 gene (0.7 µg/µL stock) and Turbofect (Fisher) were mixed with DMEM (no FBS) and incubated at room temperature for 15 min (1 µg of plasmid and 3 µL of Turbofect in 100 µL of media per well). The solution was added to the plated cells and incubated at 37 °C overnight. For mock transfection, the plasmid was omitted.
For 10 cm plate transfection for lysate preparation, the following modifications were used: 1.6×10^6 cells were seeded per plate; 8 µg plasmid and 24 µL Turbofect were mixed in 800 µL DMEM.
Transfected cells were washed with PBS and incubated in 1 mL of PBS with EDTA (per well) at 37 °C for 3 min to detach. The cells were then transferred into sterile Eppendorf tubes and centrifuged at 2000 rpm for 3 min at 4 °C to form pellets. Subsequently the cells were incubated with 1 mL of 10 nM probe in PBS at 0 °C for 30 min. […] Protein concentration was determined by the DC protein assay (Bio-Rad) using BSA to generate a standard curve. […]

[3] = target: T1, FPR1 (FLAG-tagged, transiently transfected HEK293T cells) (Homo sapiens, UniProt P21462); experiment: flow cytometry binding to FPR1-transfected HEK293T cells; details: 10 nM; 10 000 cells per sample
T1 construct: host or cells: HEK293T, transient transfection with Turbofect
T1 sequence (P21462 1-350): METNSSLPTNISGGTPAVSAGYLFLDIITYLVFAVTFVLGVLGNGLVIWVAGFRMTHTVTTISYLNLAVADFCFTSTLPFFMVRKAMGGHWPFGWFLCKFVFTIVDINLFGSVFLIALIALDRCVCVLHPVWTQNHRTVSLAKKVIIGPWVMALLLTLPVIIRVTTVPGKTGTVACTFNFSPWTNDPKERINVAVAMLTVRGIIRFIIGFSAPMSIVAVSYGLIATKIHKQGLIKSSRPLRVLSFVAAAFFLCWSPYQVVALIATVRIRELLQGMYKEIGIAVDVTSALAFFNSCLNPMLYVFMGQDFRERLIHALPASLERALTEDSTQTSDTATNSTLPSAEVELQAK
Experimental: Fig. 2 Evaluation of probe-TAMRA as a ligand for FPR1 by flow cytometry. Histograms of FPR1-transfected (+FPR1) or mock-transfected (mock) HEK293T cells incubated with Tracer-FITC (a) or probe-TAMRA (b) each at 10 nM at the indicated wavelengths. 10 000 cells measured per sample. (c) Plot of mean fluorescence intensity determined from flow cytometry analysis following incubation with increasing concentrations of probe-TAMRA with transfected (blue) or mock transfected (grey) cells. Data from 3 biological replicates; error bars represent standard error of the mean. Black curve is subtraction of background binding (grey curve) from blue curve and represents specific binding. (d) Dot plot from incubation of transfected cells with Tracer-FITC alone (cyan), probe-TAMRA alone (blue), or co-incubation of probe and tracer (red). All peptides at 10 nM. (e) Plot of percentage maximum fluorescence at 525 nm (FITC) and 585 nm (TAMRA) wavelengths from a flow cytometry competition experiment in which Tracer-FITC was held constant at a concentration of 10 nM and the concentration of probe-TAMRA increased from 0–200 nM. […]
Transfected cells were washed with PBS and incubated in 1 mL of PBS with EDTA (per well) at 37 °C for 3 min to detach. […] Protein concentration was determined by the DC protein assay (Bio-Rad) using BSA to generate a standard curve. […]

FPR1 [4] = target: FPR1; parameters: method as in 4 sources, ref [17] = [17]; PMID 18312550; doi:10.1111/j.1747-0285.2008.00646.x; Wittelsberger A. Mierke D. F. Rosenblatt M. Mapping ligand-receptor interfaces: approaching the resolution limit of benzophenone-based photoaffinity scanning Chem. Biol. Drug Des. 2008 71 4 380 383 10 ||| ref [20] = [20]; PMID 472759; doi:10.1126/science.472759; Niedel J. E. Kahane I. Receptor-Mediated Internalisation of Fluorescent Chemotactic Peptide by Human Neutrophils Science 1979 205 1412 1414 10.1126/science.472759 472759 ||| ref [21] = [21]; PMID 15209517; doi:10.1021/bi035335i; Waller A. Sutton K. L. Kinzer-Ursem T. L. Absood A. Traynor J. R. Linderman J. J. Omann G. M. Receptor binding kinetics and cellular responses of six N-formyl peptide agonists in human neutrophils Bio ||| ref [30] = [30]; PMID 19006074; doi:10.1002/cyto.a.20670; Strouse J. J. Young S. M. Mitchell H. D. Ye R. D. Prossnitz E. R. Sklar L. A. Edwards B. S. A novel fluorescent cross-reactive formylpeptide receptor/formylpeptide receptor-like 1 hexapeptide ligand C; details: cited from earlier work; for binding to FPR1: ref [20]
FPR1 [5] = details: ref [20]; cited from earlier work
Experimental: Upon agonist binding, FPR1 internalises following activation of G protein subunits, resulting in receptor desensitisation.[20] […] Upon heating to 37 °C, fluorescent material was ob ...

[6] = target: T2, Formyl peptide receptor 1, C-terminally FLAG-tagged (UniProt P21462 1-350); experiment: flow cytometry on cells; FPR1-transfected or mock-transfected HEK293T cells incubated with the fluorescent peptide (10 nM; probe-TAMRA titrated 0-200 nM); background of mock-transfected cells subtracted; 3 biological replicates; details: one partner purified
T2 construct: Formyl peptide receptor 1 (FPR1); Glycosylated in HEK293T (diffuse band that sharpens with PNGaseF); also called FPR1; FLAG-tagged FPR1; source: HEK293T, transiently transfected; on living cells, in lysate (sonication) or in a crude membrane fraction; not shown: FLAG, C-terminal, kept
T2 sequence (looked up): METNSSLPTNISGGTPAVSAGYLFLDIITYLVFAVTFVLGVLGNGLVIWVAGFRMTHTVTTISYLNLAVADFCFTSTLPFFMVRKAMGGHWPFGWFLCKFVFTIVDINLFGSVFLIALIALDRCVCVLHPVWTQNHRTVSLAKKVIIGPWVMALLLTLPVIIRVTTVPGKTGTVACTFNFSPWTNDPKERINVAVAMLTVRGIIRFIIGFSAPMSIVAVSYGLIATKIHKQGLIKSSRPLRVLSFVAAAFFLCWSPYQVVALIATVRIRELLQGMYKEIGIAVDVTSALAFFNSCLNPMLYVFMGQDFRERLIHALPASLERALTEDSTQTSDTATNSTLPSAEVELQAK

Molecule: Boc-MLF
concentration at which competition of probe-TAMRA binding observed [1]: 10 to 50 µM
inhibition of probe-TAMRA labelling ([2]; 20 μM competitor): incomplete inhibition

Molecule: For-[Nle]LF[Nle]YK(FITC)-OH [Tracer-FITC]
fluorescence shift in flow cytometry [3]: clear shift to a population of fluorescent cells with minimal background binding in mock-transfected cells
Kd (FPR1 [4]; ref [17], read-out: reported KD): ~3 nM
binding to FPR1 (FPR1 [4]): low nM binding to FPR1

Molecule: fMLF
concentration at which competition of probe-TAMRA binding observed [1]: greater than 5 μM
KD of tripeptide (reported, words) (FPR1 [4]; ref [21]): nM range
inhibition of probe-TAMRA labelling ([2]; 5 μM competitor): incomplete inhibition

Molecule: fMLFF
potency as reported (FPR1 [4]; ref [30]): more potent
inhibition of probe-TAMRA labelling ([2]; 5 μM competitor): complete inhibition

Molecule: formyl-Nle-Leu-Phe-Nle-Tyr-Lys(TAMRA)-OH [TAMRA version of the tracer]
internalisation (literature) (FPR1 [5]): receptor internalisation
binding to FPR1 (FPR1 [4]): low nM binding to FPR1

Kd [6]: 3.5 ± 0.9 nM
Molecule: For-[Abu(3-Me-diazirin-3-yl)]LF[Nle]YK(5(6)‑TAMRA)-OH [probe-TAMRA]
